Results from patent publication US8471005B2 (Cephalon, Inc., priority 2008, dated 2013).
Where two headings read alike, the source gives them in different places. Blank lines part the entries; values can stand above or below the compound they belong to.

How the values were obtained:
ALK = biological target: T1, ALK (Homo sapiens, UniProt Q9UM73); experiment: ALK Kinase Assay (ELISA/TRF, PLC-γ substrate); assay type: biochemical; settings: read-out: ALK Potency
T1 construct: host or cells: baculovirus expression system
T1 sequence (Q9UM73 19-1620): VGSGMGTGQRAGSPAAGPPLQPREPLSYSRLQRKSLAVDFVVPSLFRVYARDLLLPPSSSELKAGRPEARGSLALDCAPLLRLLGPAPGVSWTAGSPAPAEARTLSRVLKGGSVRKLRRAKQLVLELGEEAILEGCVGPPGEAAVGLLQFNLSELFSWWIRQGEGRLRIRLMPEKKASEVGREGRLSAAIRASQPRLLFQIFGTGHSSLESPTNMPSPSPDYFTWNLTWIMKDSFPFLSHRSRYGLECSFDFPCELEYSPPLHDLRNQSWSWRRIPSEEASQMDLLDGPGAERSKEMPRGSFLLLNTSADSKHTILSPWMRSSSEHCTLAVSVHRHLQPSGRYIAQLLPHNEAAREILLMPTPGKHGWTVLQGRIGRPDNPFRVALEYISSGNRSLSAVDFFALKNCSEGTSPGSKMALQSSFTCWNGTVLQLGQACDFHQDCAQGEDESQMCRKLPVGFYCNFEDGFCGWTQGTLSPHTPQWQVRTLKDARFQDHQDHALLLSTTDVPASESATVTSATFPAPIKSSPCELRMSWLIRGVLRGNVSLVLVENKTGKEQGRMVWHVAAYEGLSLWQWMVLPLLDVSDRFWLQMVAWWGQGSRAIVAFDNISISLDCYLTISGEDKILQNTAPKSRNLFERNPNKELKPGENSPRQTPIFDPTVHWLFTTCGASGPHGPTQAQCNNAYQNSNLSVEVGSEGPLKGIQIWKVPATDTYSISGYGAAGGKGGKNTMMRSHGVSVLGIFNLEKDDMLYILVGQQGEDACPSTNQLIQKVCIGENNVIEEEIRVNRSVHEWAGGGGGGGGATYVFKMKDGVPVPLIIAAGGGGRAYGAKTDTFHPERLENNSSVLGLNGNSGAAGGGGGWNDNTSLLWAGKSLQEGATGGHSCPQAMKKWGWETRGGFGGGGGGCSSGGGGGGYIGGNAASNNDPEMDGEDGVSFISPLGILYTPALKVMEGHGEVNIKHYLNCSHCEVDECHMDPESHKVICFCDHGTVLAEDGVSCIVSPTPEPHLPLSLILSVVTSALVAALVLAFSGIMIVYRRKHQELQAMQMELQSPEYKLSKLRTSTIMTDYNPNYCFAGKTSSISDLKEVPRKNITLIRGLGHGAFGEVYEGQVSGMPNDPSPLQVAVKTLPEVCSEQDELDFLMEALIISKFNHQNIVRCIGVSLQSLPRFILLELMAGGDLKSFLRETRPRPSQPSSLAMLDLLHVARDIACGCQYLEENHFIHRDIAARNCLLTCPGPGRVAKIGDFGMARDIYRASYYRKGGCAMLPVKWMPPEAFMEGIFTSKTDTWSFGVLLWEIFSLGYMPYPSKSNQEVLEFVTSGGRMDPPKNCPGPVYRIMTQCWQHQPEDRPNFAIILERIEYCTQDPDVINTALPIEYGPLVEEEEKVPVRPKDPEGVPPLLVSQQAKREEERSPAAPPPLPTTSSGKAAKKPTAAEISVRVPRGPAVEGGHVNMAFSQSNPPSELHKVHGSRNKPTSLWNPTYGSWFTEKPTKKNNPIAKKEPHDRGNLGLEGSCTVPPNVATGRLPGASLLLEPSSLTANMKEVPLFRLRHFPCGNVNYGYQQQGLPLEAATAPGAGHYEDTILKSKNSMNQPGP
How it was run: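 First, plates are coated with substrate (phospholipase C-γ, 10 μg/mL, TBS). Next, 30 ng/ml ALK initiates phosphorylation for 15 min at 37° C. Then Eu-N1 PT66 antibody is added for detection, and a nonlinear dose-response fit of percent inhibition yields IC50.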

JAK2 = biological target: T2, JAK2 (Homo sapiens, UniProt O60674); experiment: Recombinant Human JAK2 Kinase Assay (TRF); assay type: biochemical; settings: read-out: JAK2 Potency
T2 construct: host or cells: baculovirus expression system
T2 sequence (O60674 whole entry): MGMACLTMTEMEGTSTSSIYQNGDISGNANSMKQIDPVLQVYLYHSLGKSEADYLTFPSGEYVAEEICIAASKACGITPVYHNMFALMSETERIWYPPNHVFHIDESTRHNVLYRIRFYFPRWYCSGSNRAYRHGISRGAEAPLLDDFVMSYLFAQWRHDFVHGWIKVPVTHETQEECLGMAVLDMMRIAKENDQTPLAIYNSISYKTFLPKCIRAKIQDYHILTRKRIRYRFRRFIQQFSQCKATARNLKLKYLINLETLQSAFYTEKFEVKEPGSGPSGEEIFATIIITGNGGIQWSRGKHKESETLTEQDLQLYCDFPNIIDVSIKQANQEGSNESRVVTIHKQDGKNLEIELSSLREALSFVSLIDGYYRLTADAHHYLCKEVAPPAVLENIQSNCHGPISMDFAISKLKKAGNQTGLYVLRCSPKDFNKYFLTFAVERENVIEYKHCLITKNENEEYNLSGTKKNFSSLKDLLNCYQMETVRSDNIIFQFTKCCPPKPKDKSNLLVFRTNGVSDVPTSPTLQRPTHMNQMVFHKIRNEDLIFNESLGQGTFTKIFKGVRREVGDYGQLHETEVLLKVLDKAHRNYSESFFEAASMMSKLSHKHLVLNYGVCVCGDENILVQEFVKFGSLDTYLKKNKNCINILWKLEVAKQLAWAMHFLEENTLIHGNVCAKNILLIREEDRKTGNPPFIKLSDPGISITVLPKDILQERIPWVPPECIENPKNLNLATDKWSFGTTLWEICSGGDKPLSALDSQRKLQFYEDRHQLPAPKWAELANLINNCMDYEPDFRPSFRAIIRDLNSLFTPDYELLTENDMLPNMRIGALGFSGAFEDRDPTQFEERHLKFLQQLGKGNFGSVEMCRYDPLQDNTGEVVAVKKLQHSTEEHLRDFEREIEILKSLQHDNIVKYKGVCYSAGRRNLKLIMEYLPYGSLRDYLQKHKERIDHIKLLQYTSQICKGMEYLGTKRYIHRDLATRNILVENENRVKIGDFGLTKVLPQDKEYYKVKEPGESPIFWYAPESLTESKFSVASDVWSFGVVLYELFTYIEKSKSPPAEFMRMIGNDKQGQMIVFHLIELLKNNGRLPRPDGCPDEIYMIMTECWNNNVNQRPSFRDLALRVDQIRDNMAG
How it was run: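 Europium-labelled PY100 antibody reported tyrosine phosphorylation of a Neutravidin-captured biotinyl 15-mer peptide by JAK2 (baculovirus-expressed, 15 ng/ml). Conditions: 20 mM HEPES pH 7.2, 0.2 μM ATP, 1 mM MnCl2, 0.1% BSA, DMSO 2.5% final, 20 min at room temperature.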

[1] = ALK kinase inhibition, 1 μM ATP
[2] = JAK2 kinase inhibition, 0.2 μM ATP

Compound: CN1CCN(c2ccc(Nc3ncc4ccc(-c5ccc6c(c5)OCCO6)n4n3)cc2)CC1 [Example 8, [7-(2,3-Dihydro-benzo[1,4]dioxin-6-yl)-pyrrolo[2,1-f][1,2,4]triazin-2-yl]-[4-(4-methyl-piperazin-1-yl)-phenyl]-amine]
IC50 (ALK; ALK Kinase Inhibition): < 100 nM
IC50 (JAK2; JAK2 Kinase Inhibition): < 100 nM

Compound: COc1ccccc1-c1ccc2cnc(Nc3ccc4c(c3)CC(=O)N4C)nn12 [Example 359, 5-[7-(2-Methoxy-phenyl)-pyrrolo[2,1-f][1,2,4]triazin-2-ylamino]-1-methyl-1,3-dihydro-indol-2-one]
IC50 (ALK; ALK Kinase Inhibition): 100 to 1000 nM
IC50 (JAK2; JAK2 Kinase Inhibition): < 100 nM

Compound: O=C(O)c1ccc(-c2ccc3cnc(Nc4ccc(N5CCOCC5)cc4)nn23)cc1 [Example 45, 4-[2-(4-Morpholin-4-yl-phenylamino)-pyrrolo[2,1-f][1,2,4]triazin-7-yl]-benzoic acid]
IC50 (ALK; ALK Kinase Inhibition): > 10000 nM
IC50 (JAK2; JAK2 Kinase Inhibition): < 100 nM

Compound: CS(=O)(=O)Nc1ccc(-c2ccc3cnc(Nc4ccc(N5CCOCC5)cc4)nn23)cc1 [Example 200, N-{4-[2-(4-Morpholin-4-yl-phenylamino)-pyrrolo[2,1-f][1,2,4]triazin-7-yl]-phenyl}-methanesulfonamide]
IC50 (ALK; ALK Kinase Inhibition): 100 to 1000 nM
IC50 (JAK2; JAK2 Kinase Inhibition): < 100 nM

Compound: CNC(=O)c1ccc(-c2ccc3cnc(Nc4ccc(N5CCOCC5)cc4)nn23)cc1 [Example 55, N-Methyl-4-[2-(4-morpholin-4-yl-phenylamino)-pyrrolo[2,1-f][1,2,4]triazin-7-yl]-benzamide]
IC50 (ALK; ALK Kinase Inhibition): 1000 to 10000 nM
IC50 (JAK2; JAK2 Kinase Inhibition): < 100 nM

Compound: CN1CCN(Cc2ccc(Nc3ncc4ccc(-c5ccc(S(C)(=O)=O)cc5)n4n3)cc2)CC1 [Example 355, [7-(4-Methanesulfonyl-phenyl)-pyrrolo[2,1-f][1,2,4]triazin-2-yl]-[4-(4-methyl-piperazin-1-ylmethyl)-phenyl]-amine]
IC50 (ALK; ALK Kinase Inhibition): 1000 to 10000 nM
IC50 (JAK2; JAK2 Kinase Inhibition): < 100 nM

Compound: COc1ccc(Cl)cc1-c1ccc2cnc(Nc3ccc(N4CCN(C[C@H](C)O)CC4)cc3)nn12 [Example 203, (S)-1-(4-{4-[7-(5-Chloro-2-methoxy-phenyl)-pyrrolo[2,1-f][1,2,4]triazin-2-ylamino]-phenyl}-piperazin-1-yl)-propan-2-ol]
IC50 (ALK; ALK Kinase Inhibition): < 100 nM
IC50 (JAK2; JAK2 Kinase Inhibition): < 100 nM

Compound: COc1cc(N2CCC(N3CCOCC3)CC2)ccc1Nc1ncc2ccc(-c3c(OC)cccc3OC)n2n1 [Example 542, [7-(2,6-Dimethoxy-phenyl)-pyrrolo[2,1-f][1,2,4]triazin-2-yl]-[2-methoxy-4-(4-morpholin-4-yl-piperidin-1-yl)-phenyl]-amine]
IC50 (ALK; [1]): 100 to 1000 nM
IC50 (JAK2; [2]): 1000 to 10000 nM

Compound: COc1ccc(-c2ccc3cnc(Nc4ccc(C5CC6CCC(C5)N6C)cc4)nn23)cn1 (stereo not drawn) [Example 944, [7-(6-Methoxy-pyridin-3-yl)-pyrrolo[2,1-f][1,2,4]triazin-2-yl]-[4-(8-methyl-8-aza-bicyclo[3.2.1]oct-3-yl)-phenyl]-amine]
IC50 (ALK; [1]): 100 to 1000 nM
IC50 (JAK2; [2]): < 100 nM

Compound: Cn1cc(-c2ccc3cnc(Nc4ccc(C5CN(CC(N)=O)C5)cc4)nn23)cn1 [Example 585, 2-(3-{4-[7-(1-Methyl-1H-pyrazol-4-yl)-pyrrolo[2,1-f][1,2,4]triazin-2-ylamino]-phenyl}-azetidin-1-yl)-acetamide]
IC50 (ALK; [1]): 100 to 1000 nM
IC50 (JAK2; [2]): < 100 nM

Compound: CN(c1ccccc1-c1ccc2cnc(OC3CCN(c4ccc(N)cc4)CC3)nn12)S(C)(=O)=O [Example 634, N-(2-{2-[1-(4-Amino-phenyl)-piperidin-4-yloxy]-pyrrolo[2,1-f][1,2,4]triazin-7-yl}-phenyl)-N-methyl-methanesulfonamide]
IC50 (ALK; [1]): 1000 to 10000 nM
IC50 (JAK2; [2]): 100 to 1000 nM

Compound: COc1ccccc1Sc1ccc2cnc(Nc3ccc(N4CCN(C)CC4)cc3)nn12 [Example 98, [7-(2-Methoxy-phenylsulfanyl)-pyrrolo[2,1-f][1,2,4]triazin-2-yl]-[4-(4-methyl-piperazin-1-yl)-phenyl]-amine]
IC50 (ALK; ALK Kinase Inhibition): 100 to 1000 nM
IC50 (JAK2; JAK2 Kinase Inhibition): < 100 nM

Compound: CN1CCN(c2ccc(Nc3ncc4cc5ccccc5n4n3)cc2)CC1 [Example 263, [4-(4-Methyl-piperazin-1-yl)-phenyl]-[1,2,4]triazino[1,6-a]indol-2-yl-amine]
IC50 (ALK; ALK Kinase Inhibition): 100 to 1000 nM
IC50 (JAK2; JAK2 Kinase Inhibition): < 100 nM

Compound: N-[2-(2-{4-[4-(2-Hydroxy-ethylamino)-piperidin-1-yl]-2-methoxy-phenylamino}-pyrrolo[2,1-f][1,2,4]triazin-7-yl)-phenyl]-N-methyl-methanesulfonamide [Example 798]
IC50 (ALK; [1]): < 100 nM
IC50 (JAK2; [2]): 100 to 1000 nM

Compound: CS(=O)(=O)Nc1ccccc1-c1ccc2cnc(Nc3ccc(N4CCOCC4)cc3)nn12 [Example 428, N-{2-[2-(4-Morpholin-4-yl-phenylamino)-pyrrolo[2,1-f][1,2,4]triazin-7-yl]-phenyl}-methanesulfonamide]
IC50 (ALK; ALK Kinase Inhibition): 1000 to 10000 nM
IC50 (JAK2; JAK2 Kinase Inhibition): < 100 nM

Compound: Cc1cc(Nc2ncc3ccc(-c4ccc(S(C)(=O)=O)cc4)n3n2)ccc1C1CCN(C)CC1 [Example 947, [7-(4-Methanesulfonyl-phenyl)-pyrrolo[2,1-f][1,2,4]triazin-2-yl]-[3-methyl-4-(1-methyl-piperidin-4-yl)-phenyl]-amine]
IC50 (ALK; [1]): < 100 nM
IC50 (JAK2; [2]): < 100 nM

Compound: COc1ccccc1-c1ccc2cnc(Nc3ccc(CN4CCN(C)CC4)cc3)nn12 [Example 353, [7-(2-Methoxy-phenyl)-pyrrolo[2,1-f][1,2,4]triazin-2-yl]-[4-(4-methyl-piperazin-1-ylmethyl)-phenyl]-amine]
IC50 (ALK; ALK Kinase Inhibition): < 100 nM
IC50 (JAK2; JAK2 Kinase Inhibition): < 100 nM

Compound: CN1CCN(c2ccc(Nc3ncc4ccc(-c5ccccc5Cl)n4n3)cc2)CC1 [Example 25, [7-(2-Chloro-phenyl)-pyrrolo[2,1-f][1,2,4]triazin-2-yl]-[4-(4-methyl-piperazin-1-yl)-phenyl]-amine]
IC50 (ALK; ALK Kinase Inhibition): < 100 nM
IC50 (JAK2; JAK2 Kinase Inhibition): < 100 nM

Compound: COc1ccccc1-c1c(C)c(C)c2cnc(Nc3ccc(N4CCN(C)CC4)cc3)nn12 [Example 1107]
IC50 (ALK; [1]): < 100 nM
IC50 (JAK2; [2]): < 100 nM

Compound: CN(C)c1cccc(Nc2ncc3ccc(-c4cccc(Cl)c4)n3n2)c1 [Example 159, N-[7-(3-Chloro-phenyl)-pyrrolo[2,1-f][1,2,4]triazin-2-yl]-N′,N′-dimethyl-benzene-1,3-diamine]
IC50 (ALK; ALK Kinase Inhibition): > 10000 nM
IC50 (JAK2; JAK2 Kinase Inhibition): 1000 to 10000 nM

Second part, the compound after the results:

IC50 (ALK; [1]): 100 to 1000 nM
IC50 (JAK2; [2]): < 100 nM
Compound: CC(C)(C)NS(=O)(=O)c1cccc(-c2ccc3cnc(Nc4ccc5c(c4)ncn5CCN4CCOCC4)nn23)c1 [Example 1325, N-tert-Butyl-3-{2-[1-(2-morpholin-4-yl-ethyl)-1H-benzimidazol-5-ylamino]-pyrrolo[2,1-f][1,2,4]triazin-7-yl}-benzenesulfonamide]

IC50 (ALK; ALK Kinase Inhibition): 100 to 1000 nM
IC50 (JAK2; JAK2 Kinase Inhibition): < 100 nM
Compound: CC(=O)Nc1cc(Nc2ncc3ccc(-c4cccc(S(=O)(=O)NC(C)(C)C)c4)n3n2)ccc1C(C)(C)C [Example 1387, N-{2-tert-Butyl-5-[7-(3-tert-butylsulfamoyl-phenyl)-pyrrolo[2,1-f][1,2,4]triazin-2-ylamino]-phenyl}-acetamide]

IC50 (ALK; [1]): 1000 to 10000 nM
IC50 (JAK2; [2]): 100 to 1000 nM
Compound: COc1ccccc1-c1cc2cnc(Nc3ccc(N4CCN(C)CC4)cc3)nn2c1 [Example 1156, [6-(2-Methoxy-phenyl)-pyrrolo[2,1-f][1,2,4]triazin-2-yl]-[4-(4-methyl-piperazin-1-yl)-phenyl]-amine]

IC50 (ALK; [1]): 100 to 1000 nM
IC50 (JAK2; [2]): > 10000 nM
Compound: COc1ccc(N(C)S(C)(=O)=O)c(-c2ccc3cnc(Nc4ccc(C5CCN(CC(N)=O)CC5)cc4OC)nn23)c1 [Example 1283, 2-[4-(4-{7-[2-(Methanesulfonyl-methyl-amino)-5-methoxy-phenyl]-pyrrolo[2,1-f][1,2,4]triazin-2-ylamino}-3-methoxy-phenyl)-piperidin-1-yl]-acetamide]

IC50 (ALK; [1]): 100 to 1000 nM
IC50 (JAK2; [2]): < 100 nM
Compound: CN1CCN(c2ccc(Nc3ncc4ccc(-c5cccc(S(=O)(=O)NC(C)(C)C)c5)n4n3)cn2)CC1 [Example 1127, N-tert-Butyl-3-{2-[6-(4-methyl-piperazin-1-yl)-pyridin-3-ylamino]-pyrrolo[2,1-f][1,2,4]triazin-7-yl}-benzenesulfonamide]

IC50 (ALK; [1]): < 100 nM
IC50 (JAK2; [2]): 1000 to 10000 nM
Compound: COc1cc(C2CCN(CC(N)=O)CC2)ccc1Nc1ncc2ccc(-c3cn(C)nc3N(C)S(C)(=O)=O)n2n1 [Example 1256, 2-[4-(4-{7-[3-(Methanesulfonyl-methyl-amino)-1-methyl-1H-pyrazol-4-yl]-pyrrolo[2,1-f][1,2,4]triazin-2-ylamino}-3-methoxy-phenyl)-piperidin-1-yl]-acetamide]

IC50 (ALK; [1]): 100 to 1000 nM
IC50 (JAK2; [2]): < 100 nM
Compound: COc1ccc(-c2ccc3cnc(Nc4ccc(C5CCN(C)CC5)cc4)nn23)cn1 [Example 1180, [7-(6-Methoxy-pyridin-3-yl)-pyrrolo[2,1-f][1,2,4]triazin-2-yl]-[4-(1-methyl-piperidin-4-yl)-phenyl]-amine]

IC50 (ALK; [1]): > 10000 nM
IC50 (JAK2; [2]): < 100 nM
Compound: CS(=O)(=O)c1ccc(-c2ccc3cnc(Nc4ccc5nc(C(F)(F)F)[nH]c5c4)nn23)cc1 [Example 1302, [7-(4-Methanesulfonyl-phenyl)-pyrrolo[2,1-f][1,2,4]triazin-2-yl]-(2-trifluoromethyl-3H-benzimidazol-5-yl)-amine]

IC50 (ALK; [1]): < 100 nM
IC50 (JAK2; [2]): 1000 to 10000 nM
Compound: COc1cc(CN2CCN(C[C@H](C)O)CC2)ccc1Nc1ncc2ccc(-c3ccccc3N(C)S(C)(=O)=O)n2n1 [Example 1224, N-[2-(2-{4-[4-((S)-2-Hydroxy-propyl)-piperazin-1-ylmethyl]-2-methoxy-phenylamino}-pyrrolo[2,1-f][1,2,4]triazin-7-yl)-phenyl]-N-methyl-methanesulfonamide]

IC50 (ALK; ALK Kinase Inhibition): 100 to 1000 nM
IC50 (JAK2; JAK2 Kinase Inhibition): < 100 nM
Compound: COc1ccccc1-c1ccc2cnc(Nc3ccc4nc(CN5CCOCC5)[nH]c4c3)nn12 [Example 1518, [7-(2-Methoxy-phenyl)-pyrrolo[2,1-f][1,2,4]triazin-2-yl]-(2-morpholin-4-ylmethyl-3H-benzimidazol-5-yl)-amine]
